The subject of the assay is BDF1 mice, L1210 terephthalanilide-resistant leukemia ip, survival T/C. Put plainly: NCI In Vivo Anticancer Drug Screen. Data for tumor model L1210 Leukemia resistant to A Terephthalanilide; NSC 38280 (intraperitoneal) in B6D2F1 (BDF1) mice. The note with it: endpoint: mean survival time, higher = longer survival. As to the method:
The antitumor activity of compounds was measured in mice bearing transplantable tumors. Survival or tumor size were measured and the results are expressed as the measurement made in the treated group (T) divided by the measurement made in the vehicle treated control group (C). The tumor model used in this assay is L1210 Leukemia resistant to A Terephthalanilide; NSC 38280 (intraperitoneal) in B6D2F1 (BDF1) mice

The mark [1] stands for this setting: dose: 13.3 mg/kg/injection, schedule: Q01DX010 (ip), vehicle: saline.
The mark [2] stands for this setting: dose: 20.0 mg/kg/injection, schedule: Q01DX010 (ip), vehicle: saline.
Where [3] appears, read: dose: 30.0 mg/kg/injection, schedule: Q01DX010 (ip), vehicle: saline.
The mark [4] stands for this setting: dose: 25.0 mg/kg/injection, schedule: Q01DX Z (ip), vehicle: carboxymethylcellulose (CMC).
Where [5] appears, read: dose: 37.5 mg/kg/injection, schedule: Q01DX Z (ip), vehicle: carboxymethylcellulose (CMC).
Setting [6] is: dose: 60.0 mg/kg/injection, schedule: Q01DX010 (ip), vehicle: saline.
Setting [7] is: dose: 125.0 mg/kg/injection, schedule: Q01DX010 (ip), vehicle: saline.
Where [8] appears, read: dose: 250.0 mg/kg/injection, schedule: Q01DX010 (ip), vehicle: saline.
Setting [9] is: dose: 500.0 mg/kg/injection, schedule: Q01DX Z (ip), vehicle: saline.

The results in this text go back to PubChem BioAssay AID282 (DTP/NCI, 2004).

Values joined by “and” are separate entries in the source; they are usually repeats but may differ in a detail not shown here. Equal values may be shown once. Toxic doses and inconclusive results are not listed.

In the case of `CNc1nc(Nc2ccc(C3=NCCN3)cc2)nc(Nc2ccc(C3=NCCN3)cc2)n1`, the T/C was 100 % of control under setting [1]; 94 % of control under setting [2]; 99 % of control under setting [3]; 97 % of control (dose: 45.0 mg/kg/injection, schedule: Q01DX010 (ip), vehicle: saline).

As to `Cc1cc(N(CCCl)CCCl)ccc1N=Nc1ccccc1C(=O)O`, the T/C by setting is: (dose: 0.5 mg/kg/injection, schedule: Q01DX Z (ip), vehicle: carboxymethylcellulose (CMC)) 105 % of control; (dose: 1.0 mg/kg/injection, schedule: Q01DX Z (ip), vehicle: carboxymethylcellulose (CMC)) 102 % of control; (dose: 2.0 mg/kg/injection, schedule: Q01DX Z (ip), vehicle: carboxymethylcellulose (CMC)) 115 % of control; (dose: 5.0 mg/kg/injection, schedule: Q01DX010 (ip), vehicle: saline) 108 % of control and 113 % of control; (dose: 6.25 mg/kg/injection, schedule: Q01DX Z (ip), vehicle: carboxymethylcellulose (CMC)) 111 % of control; (dose: 10.0 mg/kg/injection, schedule: Q01DX010 (ip), vehicle: saline) 116 % of control and 120 % of control. Moreover, the T/C is, setting by setting: under setting [2], 118 % of control and 119 % of control; under setting [4], 115 % of control; under setting [5], 112 % of control; (dose: 50.0 mg/kg/injection, schedule: Q01DX Z (ip), vehicle: carboxymethylcellulose (CMC)) 100 % of control.

Take `N#CCSc1ncnc2nc[nH]c12`: the T/C under setting [4] is 122 % of control; the T/C under setting [3] is 112 % of control and 113 % of control; the T/C under setting [6] was 109 % of control and 115 % of control; the T/C (dose: 100.0 mg/kg/injection, schedule: Q01DX Z (ip), vehicle: carboxymethylcellulose (CMC)) is 150 % of control; the T/C (dose: 120.0 mg/kg/injection, schedule: Q01DX010 (ip), vehicle: saline) is 91 % of control.

For `O=C1CCC(N2C(=O)c3ccccc3C2=O)C(=O)N1` (stereo not given), the T/C by setting is: (dose: 31.3 mg/kg/injection, schedule: Q01DX010 (ip), vehicle: saline) 94 % of control; (dose: 62.5 mg/kg/injection, schedule: Q01DX010 (ip), vehicle: saline) 96 % of control; under setting [7], 94 % of control; under setting [8], 100 % of control.

For the molecule `Clc1ncnc2nc[nH]c12`, the T/C is, setting by setting: (dose: 7.5 mg/kg/injection, schedule: Q01DX010 (ip), vehicle: saline) 94 % of control and 102 % of control; (dose: 15.0 mg/kg/injection, schedule: Q01DX010 (ip), vehicle: saline) 96 % of control and 105 % of control; under setting [3], 120 % of control and 105 % of control; under setting [5], 115 % of control; under setting [6], 123 % of control and 110 % of control; (dose: 75.0 mg/kg/injection, schedule: Q01DX Z (ip), vehicle: carboxymethylcellulose (CMC)) 114 % of control. In addition, the T/C (dose: 150.0 mg/kg/injection, schedule: Q01DX Z (ip), vehicle: carboxymethylcellulose (CMC)) was 150 % of control.

Turning to `Clc1ccc(C(c2ccccc2Cl)C(Cl)Cl)cc1` (stereo not given), the T/C (dose: 62.5 mg/kg/injection, schedule: Q01DX Z (sc), vehicle: steriod suspending solution) is 102 % of control; the T/C (dose: 125.0 mg/kg/injection, schedule: Q01DX Z (sc), vehicle: steriod suspending solution) was 104 % of control; the T/C (dose: 250.0 mg/kg/injection, schedule: Q01DX Z (sc), vehicle: steriod suspending solution) was 93 % of control; the T/C (dose: 500.0 mg/kg/injection, schedule: Q01DX Z (sc), vehicle: steriod suspending solution) is 102 % of control; the T/C (dose: 750.0 mg/kg/injection, schedule: Q01DX Z (sc), vehicle: steriod suspending solution) is 100 % of control; the T/C (dose: 1000.0 mg/kg/injection, schedule: Q01DX Z (sc), vehicle: steriod suspending solution) is 95 % of control. In addition, the T/C reads like this: (dose: 1200.0 mg/kg/injection, schedule: Q01DX Z (sc), vehicle: steriod suspending solution) 94 % of control; (dose: 1500.0 mg/kg/injection, schedule: Q01DX Z (sc), vehicle: steriod suspending solution) 91 % of control.

`C[C@@H]1C[C@H]2CC[C@H](O2)[C@H](C)C(=O)O[C@@H](C)C[C@@H]2CC[C@@H](O2)[C@@H](C)C(=O)O[C@H](C)C[C@H]2CC[C@H](O2)[C@H](C)C(=O)O[C@@H](C)C[C@@H]2CC[C@@H](O2)[C@@H](C)C(=O)O1`: the T/C is 92 % of control (dose: 45.0 mg/kg/injection, schedule: Q01DX Z (ip), vehicle: carboxymethylcellulose (CMC)); 95 % of control (dose: 90.0 mg/kg/injection, schedule: Q01DX Z (ip), vehicle: carboxymethylcellulose (CMC)); 104 % of control (dose: 180.0 mg/kg/injection, schedule: Q01DX Z (ip), vehicle: carboxymethylcellulose (CMC)); 108 % of control (dose: 360.0 mg/kg/injection, schedule: Q01DX Z (ip), vehicle: carboxymethylcellulose (CMC)).

Turning to `Nc1nc2n[nH]nc2c(=O)[nH]1`, the T/C (dose: 6.25 mg/kg/injection, schedule: Q01DX Z (ip), vehicle: water) is 106 % of control; the T/C (dose: 12.5 mg/kg/injection, schedule: Q01DX Z (ip), vehicle: water) was 113 % of control; the T/C (dose: 400.0 mg/kg/injection, schedule: Q01DX Z (ip), vehicle: water) was 95 % of control.

As to `C[C@H](N)C(=O)N[C@@H]1[C@H]2C(=C(O)C[C@@H](O)[C@@H]2O)C(=O)O[C@@H]1C`, the T/C is 156 % of control (dose: 375.0 mg/kg/injection, schedule: Q01DX Z (ip), vehicle: saline); 170 % of control under setting [9]; 202 % of control (dose: 750.0 mg/kg/injection, schedule: Q01DX Z (ip), vehicle: saline).

In the case of `CC/C(=C(/CC)c1ccc(O)cc1)c1ccc(O)cc1`, the T/C was 96 % of control and 102 % of control (dose: 12.5 mg/kg/injection, schedule: Q01DX010 (sc), vehicle: steriod suspending solution); 89 % of control and 102 % of control (dose: 25.0 mg/kg/injection, schedule: Q01DX010 (sc), vehicle: steriod suspending solution); 102 % of control and 103 % of control (dose: 50.0 mg/kg/injection, schedule: Q01DX010 (sc), vehicle: steriod suspending solution); 96 % of control and 98 % of control (dose: 100.0 mg/kg/injection, schedule: Q01DX010 (sc), vehicle: steriod suspending solution).

For the molecule `CN=C(NC)c1ccc(NC(=O)Nc2ccc(NC(=O)Nc3ccc(C(=NC)NC)cc3)cc2)cc1`, the T/C by setting is: under setting [1], 101 % of control; under setting [2], 101 % of control.

`S=P(N1CC1)(N1CC1)N1CC1`: the T/C (dose: 0.75 mg/kg/injection, schedule: Q01DX010 (ip), vehicle: saline) is 97 % of control and 115 % of control; the T/C (dose: 1.5 mg/kg/injection, schedule: Q01DX010 (ip), vehicle: saline) was 124 % of control and 105 % of control; the T/C (dose: 3.0 mg/kg/injection, schedule: Q01DX010 (ip), vehicle: saline) was 118 % of control; the T/C (dose: 6.0 mg/kg/injection, schedule: Q01DX010 (ip), vehicle: saline) is 94 % of control and 100 % of control.

On to `CCOC(N)=O`, for which the T/C runs as follows: (dose: 50.0 mg/kg/injection, schedule: Q01DX Z (ip), vehicle: saline) 107 % of control; (dose: 100.0 mg/kg/injection, schedule: Q01DX Z (ip), vehicle: saline) 93 % of control; under setting [7], 100 % of control and 103 % of control; (dose: 200.0 mg/kg/injection, schedule: Q01DX Z (ip), vehicle: saline) 106 % of control; under setting [8], 100 % of control and 103 % of control; (dose: 400.0 mg/kg/injection, schedule: Q01DX Z (ip), vehicle: saline) 106 % of control. The T/C was 99 % of control and 101 % of control (dose: 500.0 mg/kg/injection, schedule: Q01DX010 (ip), vehicle: saline); 96 % of control under setting [9]; 91 % of control (dose: 1000.0 mg/kg/injection, schedule: Q01DX Z (ip), vehicle: saline).

Consider `OCC1OC(n2cnc3c(=S)nc[nH]c32)C(O)C1O` (stereo not given), for which the T/C is 111 % of control under setting [2]; 119 % of control (dose: 40.0 mg/kg/injection, schedule: Q01DX010 (ip), vehicle: saline); 162 % of control (dose: 160.0 mg/kg/injection, schedule: Q01DX010 (ip), vehicle: saline).
